Experimental data taken from PMC12865225 (Clinical and Translational Science, 2026).
Several values for one entry are separate records, joined by “and”; a condition that tells them apart may be missing. Equal values may be shown once. Marks after values point to notes of the source that are not given here.

Columns and labels:
OATP1B3 [1] = target: T1, OATP1B3 (Homo sapiens, UniProt Q9NPD5); assay: OATP1B3 inhibition, rosuvastatin uptake into transporter-expressing HEK293 cells; assay type: cell-based; settings: for IC50: IC50 (95% CI), μM OATP1B3, 2.5 μM rosuvastatin, 2 min, 30 min preincubation; for Calculated R-value OATP1B3: R = 1 + (I in,max,u/IC50), FDA cut-off ≥ 1.1
T1 construct: expressed in transfected cells; host or cells: HEK293 (recombinant baculovirus-mediated transduction)
T1 sequence (Q9NPD5 1-702): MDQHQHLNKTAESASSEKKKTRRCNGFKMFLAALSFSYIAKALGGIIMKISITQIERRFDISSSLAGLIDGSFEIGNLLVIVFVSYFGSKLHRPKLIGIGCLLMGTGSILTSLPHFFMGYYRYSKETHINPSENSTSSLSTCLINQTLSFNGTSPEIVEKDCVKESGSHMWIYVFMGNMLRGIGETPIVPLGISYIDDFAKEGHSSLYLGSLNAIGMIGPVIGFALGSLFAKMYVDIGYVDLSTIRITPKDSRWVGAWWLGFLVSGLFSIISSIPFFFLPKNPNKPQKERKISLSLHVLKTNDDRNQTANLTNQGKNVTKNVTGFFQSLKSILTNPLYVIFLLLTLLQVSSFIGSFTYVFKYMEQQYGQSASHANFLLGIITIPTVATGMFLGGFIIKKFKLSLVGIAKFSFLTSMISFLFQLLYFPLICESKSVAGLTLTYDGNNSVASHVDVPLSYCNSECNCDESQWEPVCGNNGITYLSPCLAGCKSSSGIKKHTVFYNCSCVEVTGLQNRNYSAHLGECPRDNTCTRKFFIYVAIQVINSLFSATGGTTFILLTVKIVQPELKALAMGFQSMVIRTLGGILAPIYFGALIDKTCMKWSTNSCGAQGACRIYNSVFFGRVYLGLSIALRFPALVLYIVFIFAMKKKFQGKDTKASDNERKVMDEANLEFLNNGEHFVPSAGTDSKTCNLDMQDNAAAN
Method: (§1) The human transporters OATP1B1, OATP1B3, OATP2B1, and OAT1‐OAT4 and a negative control protein (enhanced yellow fluorescent protein, eYFP) were transiently expressed in human embryonic kidney 293 (HEK293) cells by recombinant baculovirus‐mediated transduction. Baculoviruses carrying human genes for the transporters were prepared as reported previously. HEK293 cells were cultured in DMEM containing 10% fetal bovine serum at 37°C and 5% CO2 and passaged two to three times per week. For the transport studies, 0.05 × 10^6 cells for 48‐well plates (OATPs) or 0.06 × 10^6 cells for 24‐well plates (OATs) were seeded onto cell‐culture treated well plates coated with poly‐D‐lysine. After 1 day, cells were transduced to produce recombinant proteins by changing media to DMEM containing 30 μL (48‐well plates) or 60 μL (24‐well plates) of recombinant baculovirus and 3 mM (OATs) or 5 mM (OATPs) sodium butyrate in a total media volume of 500 μL. The cells were cultured for a further 2 days before the transport assays.
(§2) For the transport studies, media were removed and cells were washed once with warm transport uptake buffer (TP‐buffer—pH 7.4 HBSS with 25 mM HEPES and 4 mM sodium bicarbonate). Each experiment included triplicate (OATP) or duplicate (OAT) samples for every test condition. The uptake was started by removing liquid from wells and applying warm TP‐buffer (200 μL for 24‐well plates or 125 μL for 48‐well plates) containing a test compound to cells. Transport assays were terminated after a pre‐specified incubation time (reported in figure legends) by removing substrate solution and washing cells three times with cold TP‐buffer (300 μL for 48‐well plates and 400 μL for 24‐well plates). For the liquid chromatography mass spectrometry (LC–MS) analysis, compounds were extracted from cells with 125 μL (48‐well plates) or 250 μL (24‐well plates) of an ultrapure‐water solution containing 75% methanol and 0.1% formic acid, shaking at 250 RPM for 30 min. […] Samples were transferred to well plates, centrifuged at 3000 g for 30 min, and transferred to a new well plate for the analysis.
In the OATP inhibition assays, inhibitors in warm TP‐buffer were directly applied to cells after media removal, followed by a 30‐min preincubation step in the presence of inhibitors. […] OAT1 and OAT3 cells were lysed with 200 μL of 1 M sodium hydroxide for 10 min, and 150 μL of these samples were transferred to a black well plate for fluorescein quantification. […]
For the inhibition data analysis, the average of measured concentrations in the control cells was subtracted from the average of measured concentrations in transporter‐expressing cells for each inhibitor concentration and then normalized to the vehicle sample that represents 100% transport activity. […]

OATP1B3 [2] = target: T1, OATP1B3; assay: Uptake transport assay in OATP1B3-expressing HEK293 cells; assay type: cell-based; settings: for transport by OATP1B3: 2 and 50 μM, 10 min; for Km at 2 min: human, HEK293 cells transiently expressing OATP1B3, pH 7.4, uptake; for Km / Vmax (pmol/106 cells/min) OATP1B3: uptake; for Km at 2 min / Km / Vmax (pmol/106 cells/min) OATP1B3: 2 min
Method: as §1, §2
Equation (2) (the Michaelis–Menten equation) was fit to the transport kinetic assay data. […] (2) Uptake=Vmax×S/Km+S

OAT1 = system: T2, OAT1; assay: Uptake transport assay in OAT1-expressing HEK293 cells; assay type: cell-based, human; settings: 2 and 50 μM, 10 min
T2 construct: expressed in transfected cells; host or cells: HEK293 (recombinant baculovirus-mediated transduction)
Method: as §1
For the transport studies, media were removed and cells were washed once with warm transport uptake buffer (TP‐buffer—pH 7.4 HBSS with 25 mM HEPES and 4 mM sodium bicarbonate). Each experiment included triplicate (OATP) or duplicate (OAT) samples for every test condition. […]

| SMILES | IC50 (OATP1B3 [1]) | Calculated R-value OATP1B3 (OATP1B3 [1]) | transport by OATP1B3 (OATP1B3 [2]) | Km at 2 min (OATP1B3 [2]) [µM] | Km (OATP1B3 [2]) [µM] | Vmax (pmol/106 cells/min) OATP1B3 (OATP1B3 [2]) [pmol/106 cells/min] | transport by OAT1 (OAT1) |
| --- | --- | --- | --- | --- | --- | --- | --- |
| Cc1onc(-c2c(Cl)cccc2Cl)c1C(=O)N[C@@H]1C(=O)N2[C@@H]1SC(C)(C)[C@@H]2C(=O)O [Dicloxacillin] | 6.7 µM and 6.68 µM | 1.8 ^a | transported | 2.81 | 3 | 2.69 | transported |
| Cc1onc(-c2c(F)cccc2Cl)c1C(=O)N[C@@H]1C(=O)N2[C@@H]1SC(C)(C)[C@@H]2C(=O)O [Flucloxacillin] | 21 µM | 1.7 ^a | transported | 18.3 | 10 to 18 | 6.02 | transported |
